Holding throughout (type): cell-based
The target in test [1] is T1, HRASG12V interaction with PI3K, CRAF, RALGDS (Homo sapiens, UniProt P01112, G12V).
T1 construct: expressed in transfected cells; host or cells: HEK293T
As to the kind of experiment: BRET2 cell assay, HRAS G12V-effector interaction. The conditions noted are these: HEK293T cells, 5, 10 and 20 μM, 20 h. An excerpt:
(§1) The BRET ratio corresponds to the light emitted by the GFP2 acceptor constructs (515 nm±30) upon addition of Coelenterazine 400a divided by the light emitted by the RLuc8 donor constructs (410 nm±80). The normalized BRET ratio is the BRET ratio normalized to the DMSO negative and calculated as follows: (BRETcompound/BRETDMSO)×100, where BRETcompound corresponds to the BRET ratio for the compound-treated cells, BRETDMSO to the DMSO-treated cells. Each experiment was repeated at least three times. Statistical analyses were performed using a one-way ANOVA followed by Dunnett's post-tests (*P<0.05, **P<0.01, ***P<0.001, ****P<0.0001). Where error bars are presented, they correspond to mean values±SD of biological repeats (a-c).
HEK293T cells were transfected 24 hr with plasmids expressing the NRAS Q61H […] and HRAS G12V (B, D) biosensors together with the indicated RBDs of PI3K, CRAF and RALGDS (A, B) or full-length CRAF. […]
(§2) 650,000 HEK293T were seeded in each well of a 6 well plate. […] The final concentrations in the cells were 0, 5, 10 and 20 µM (therefore the intermediate 10× concentrations were 0, 50, 100 and 200 μM. 10 μL of 10× compounds were added in each well of the 96 well plate to 0, 5, 10 and 20 µM final concentrations (with final 0.2% DMSO each). Quadruplicates were performed for each point. Cells were left for an additional 20 hours at 37° C. before the BRET2 signal reading directly after addition of Coelenterazine 400a substrate (10 µM final) to cells (Cayman Chemicals, cat #16157). BRET2 reading was carried out on an Envision instrument (2103 Multilabel Reader, PerkinElmer) with the BRET2 Dual Emission optical module (515 nm±30 and 410 nm±80; PerkinElmer).
(§3) The ability of Example compound 56 to inhibit RAS-effector PPI using the above cell-based RAS-effector BRET2 assay was investigated. […] We determined the effect of compound 56 (labelled Abd-7) on the interaction of KRAS^G12D and with PI3Kα and PI3Kγ, CRAF RAS-binding domain (RBD) and RALGDS RAS-associating domain (RA) compared with the low affinity Reference Compound Abd-2 FIG. 1a). […]

In test [2] the test system is DLD1 cells (ATCC CCL-221). In words: Cell viability assay 1 (CellTiter-Glo), DLD1 cells. The conditions noted are these: Homo sapiens, DLD-1 cells, 48 h, second value of the cell, read-out: Cell Viability DLD-1 (concentration that decreases cell viability by 50%). The gist of the method:
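DLD1 cells grown in RPMI-1640 with 10% FCS, 2 mM L-glutamine, 37 °C, 5% CO2, plated overnight then exposed to compound (0.5% DMSO) for 48 h. Viability by CellTiter-Glo luminescence; value is concentration reducing viability by 50% from dose-response curves.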

Test [3] concerns the target T2, KRASG12D interaction with PI3Kα, PI3Kγ, CRAF RBD, RALGDS RA (Homo sapiens, UniProt P01116, G12D).
T2 construct: expressed in transfected cells; host or cells: HEK293T
In words: BRET2 cell assay, KRAS G12D-effector interaction. The conditions noted are these: HEK293T cells, 5, 10 and 20 μM, 20 h.
From the text: as §1
as §2, with “plate. 24 hours later, cells were transfected with an appropriated BRET-based RAS biosensor (i.e. RAS-effector) using Lipofectamine 2000 transfection reagent (Thermo-Fisher).” for “plate.”
as §3
Background: In BRET a luciferase serves as donor, and the signal depends on an acceptor being close.

For test [4], the system named is H358 cells (ATCC CRL-5807). As to the kind of experiment: Cell viability assay 1 (CellTiter-Glo), H358 cells. The conditions noted are these: Homo sapiens, NCI-H358, 48 h, first value of the cell, read-out: Cell Viability H358 (concentration that decreases cell viability by 50%). The gist of the method: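 H358 cells were grown in RPMI-1640 with 10% FCS and 2 mM L-glutamine, plated at 5000 cells/well and allowed to adhere overnight. Compound was added in 0.5% DMSO final for 48 h at 37° C. Viability was read by CellTiter-Glo luminescence, with the 50% viability-reducing concentration derived from dose-response curves.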

“Also recorded” adds a separate entry of the source.

On to `COc1nc(-c2cccc3c2OCCO3)ccc1Nc1ccc(CN(C)C)cc1` [compound 56, [6-(2,3-Dihydro-benzo[1,4]dioxin-5-yl)-2-methoxy-pyridin-3-yl]-(4-dimethylaminomethyl-phenyl)-amine], for which the “Effect on BRET signal, HRAS G12V/effector interactions” value in test [1] is given as “interferes with all mutant RAS family member PPIs”. Moreover, the IC50 worked out at 8 µM in test [2] and 12 µM in test [4]. For the same molecule, the “Effect on BRET signal, KRAS G12D/effector interactions” value in test [3] is given as “reduces the BRET signal”.
On to `COc1cc(-c2cccc3c2OCCO3)ccc1Nc1cccc(CN(C)C)c1.O=CO` [compound 72, [4-(2,3-Dihydro-benzo[1,4]dioxin-5-yl)-2-methoxy-phenyl]-(3-dimethylaminomethyl-phenyl)-amine formate salt], for which, in test [1] (formate salt), the “Effect on BRET signal, HRAS G12V/effector interactions” value is given as “inhibits; also recorded: disturbs the BRET2 signal in dose response manner”. The IC50 in test [2] was 15.4 µM; in test [4], 15.3 µM. In addition, in test [3] (formate salt), the “Effect on BRET signal, KRAS G12D/effector interactions” value is “decreases KRAS G12D/effector domain interactions in a dose-dependent manner; also recorded: dose response reduction in BRET signal”.

Source of the values: patent US12024506B2, “Compounds” (Oxford University Innovation Limited, priority 2018, dated 2024).
